Assay results from the NIST ThermoML archive (doi:10.1021/je100832h).

Assays:
[1] = xn = mol fraction of the nth substance listed; settings: 101.32 kPa, Liquid, Vibrating tube method
[2] = excess molar enthalpy (molar enthalpy of mixing); xn = mol fraction of the nth substance listed; settings: 291.15 K, 101 kPa, Liquid, Calvet calorimetry

CCOC(C)=O [ethyl acetate] + CCCCCCCC
[1], x1 = 1
Settings | mass density [kg/m3]
291.15 K | 902.88
298.15 K | 894.4
318.15 K | 869.6
328.15 K | 857.17

CCOC(C)=O [ethyl acetate] + CCCCCCCCCC
[1], x1 = 1
Settings | mass density [kg/m3]
291.15 K | 902.88
298.15 K | 894.4
318.15 K | 869.6
328.15 K | 857.17

CCCCCC [hexane] + CCOC(C)=O
[1], x2 = 0
Settings | mass density [kg/m3]
291.15 K | 661.17
298.15 K | 654.9
318.15 K | 636.5
328.15 K | 627

CCCCCCC [heptane] + CCOC(C)=O
[1], x2 = 0
Settings | mass density [kg/m3]
291.15 K | 685.28
298.15 K | 679.48
318.15 K | 662.06
328.15 K | 653.6

CCOC(C)=O [ethyl acetate] + CCCCCCCCC
[1], x1 = 1
Settings | mass density [kg/m3]
291.15 K | 902.88
298.15 K | 894.4
318.15 K | 869.6
328.15 K | 857.17

CCOC(C)=O [ethyl acetate] + CCCCC
[1], x1 = 1
Settings | mass density [kg/m3]
291.15 K | 902.88
298.15 K | 894.4

CCCCC [pentane] + CCOC(C)=O
mass density [kg/m3], [1]
Settings | 291.15 K | 298.15 K
x2 = 0 | 628.22 | 621.35
x2 = 0.0126 | 630.77 | –
x2 = 0.026 | – | 626.34
x2 = 0.0577 | 640.44 | –
x2 = 0.0607 | – | 633.6
x2 = 0.0897 | – | 639.94
x2 = 0.0922 | 648.09 | –
x2 = 0.1609 | – | 655.94
x2 = 0.1813 | 668.69 | –
x2 = 0.2315 | – | 672.51
x2 = 0.2507 | 685.25 | –
x2 = 0.3028 | – | 690.12
x2 = 0.3232 | 703.25 | –
x2 = 0.3576 | – | 703.99
x2 = 0.3916 | 721.01 | –
x2 = 0.4301 | – | 722.92
x2 = 0.4566 | 738.23 | –
x2 = 0.4703 | – | 733.71
x2 = 0.5276 | – | 749.44
x2 = 0.5296 | 758.09 | –
x2 = 0.5916 | 775.48 | –
x2 = 0.6517 | 792.81 | –
x2 = 0.6553 | – | 785.76
x2 = 0.7126 | – | 802.69
x2 = 0.7164 | 812.13 | –
x2 = 0.7725 | – | 820.79
x2 = 0.7788 | 831.21 | –
x2 = 0.8245 | – | 836.93
x2 = 0.8582 | 856.32 | –
x2 = 0.8825 | – | 855.3
x2 = 0.8961 | 868.57 | –
x2 = 0.9342 | – | 872.31
x2 = 0.9693 | 892.55 | –
x2 = 0.9896 | – | 890.79

[2]
Settings | excess molar enthalpy [kcal/mol]
x2 = 0.0628 | 0.0777
x2 = 0.1353 | 0.139
x2 = 0.2024 | 0.194
x2 = 0.2623 | 0.232
x2 = 0.3345 | 0.274
x2 = 0.4047 | 0.295
x2 = 0.4549 | 0.305
x2 = 0.514 | 0.307
x2 = 0.5664 | 0.3
x2 = 0.6434 | 0.283
x2 = 0.7049 | 0.256
x2 = 0.7712 | 0.221
x2 = 0.8427 | 0.175
x2 = 0.9116 | 0.118
x2 = 0.9483 | 0.065
